# System: bovine monocyte-derived macrophages
# Experiment: microRNASeq analysis
# Format: cell-based
# Conditions: CATH2 vs vehicle
# From the text: Peripheral blood mononuclear cells (PBMC) were isolated from bovine blood using ficoll gradients. Bovine monocytes were isolated from PBMC using magnetic assisted cell sorting to positively select for CD14+ cells using anti-human CD14 microbeads (Miltenyi Biotec). Purified bovine blood CD14+ monocytes were differentiated into macrophages using an M2-skewing differentiation factor (recombinant bovine M-CSF) over 7 days then exposed to CATH2 or a vehicle control in the presence of bovine casein to mimic aspects of the mammary gland for 24 hr. Following treatment, vehicle and drug were removed and cells were washed to eliminate residual drug and monocyte-derived macrophages were rested for 3 days in order to assess reprogramming. Following the rest period, a subset of vehicle- and CATH2-trained monocyte-derived macrophages were assessed for epigenetic and transcriptomic changes. The remaining cells were challenged with LPS or E. coli bioparticle labeled with pH-sensitive pHrodo green dye and key parameters for macrophage activation/immune response were assessed including glycolytic activity, surface marker expression, gene expression, cytokine production, phagocytosis, reactive nitrogen species production, and miRNA profiling.
# Bovine monocyte-derived macrophages were lysed in Buffer RLT with addition of (3-mercaptoethanol (QIAGEN) and stored at −80° C. until miRNA/mRNA isolations could be performed. Total RNA including miRNA was isolated from cell lysates using the miRNeasy Tissues/Cells Advanced kit (QIAGEN) following the manufacturer's instructions. mRNA and miRNA libraries were prepared using the TruSeq Stranded mRNA Library Prep Kit (Illumina) and QIAseq miRNA Library Kit, respectively (QIAGEN) according to the manufacturer's instructions. Libraries were run on the Illumina NextSeq550 System. Sequencing data were analyzed using CLC Genomics Workbench software and QIAGEN Ingenuity Pathway Analysis (IPA).
# [1] = 3-day rest, 8-hour post-LPS, Experiment A
# [2] = 3-day rest, 8-hour post-LPS, Experiment B
# [3] = 3-day rest, 24-hour post-LPS, Experiment A
# [4] = 3-day rest, 24-hour post-LPS, Experiment B
# [5] = after 3-day rest, prior to LPS challenge
sequence,measurement,setting,value
"RFGRFLRKIRRFRPKVTITIQGSARFG [CATH2, cathelicidin 2 peptide]",bta-miR-146b Fold change,[1],2.85
same,bta-miR-146b Log2 fold change,[1],1.51
same,bta-miR-148a Fold change,[1],−1.79
same,bta-miR-148a Log2 fold change,[1],−0.84
same,bta-miR-181b Fold change,[1],1.60
same,bta-miR-181b Log2 fold change,[1],0.68
same,bta-miR-1814c Fold change,[1],−1.77
same,bta-miR-1814c Log2 fold change,[1],−0.83
same,hsa-miR-155-5p Fold change,[1],1.89
same,hsa-miR-155-5p Log2 fold change,[1],0.92
same,bta-miR-146b Fold change,[2],1.56
same,bta-miR-146b Log2 fold change,[2],0.64
same,bta-miR-148a Fold change,[2],−1.44
same,bta-miR-148a Log2 fold change,[2],−0.52
same,bta-miR-181b Fold change,[2],1.76
same,bta-miR-181b Log2 fold change,[2],0.82
same,bta-miR-1814c Fold change,[2],−2.05
same,bta-miR-1814c Log2 fold change,[2],−1.04
same,hsa-miR-155-5p Fold change,[2],2.20
same,hsa-miR-155-5p Log2 fold change,[2],1.14
same,bta-miR-146b Fold change,[3],4.52
same,bta-miR-146b Log2 fold change,[3],2.18
same,hsa-miR-146b-5p Fold change,[3],2.27
same,hsa-miR-146b-5p Log2 fold change,[3],1.18
same,bta-miR-146b Fold change,[4],4.34
same,bta-miR-146b Log2 fold change,[4],2.12
same,hsa-miR-146b-5p Fold change,[4],1.71
same,hsa-miR-146b-5p Log2 fold change,[4],0.77
same,bta-miR-27a-3p Fold change,[5],−1.31
same,bta-miR-27a-3p Log fold change,[5],−0.39
same,bta-miR-29a Fold change,[5],−1.36
same,bta-miR-29a Log fold change,[5],−0.44
same,bta-miR-29c Fold change,[5],−1.45
same,bta-miR-29c Log fold change,[5],−0.54
same,bta-miR-30f Fold change,[5],1.57
same,bta-miR-30f Log fold change,[5],0.65
same,bta-miR-92b Fold change,[5],1.52
same,bta-miR-92b Log fold change,[5],0.60
same,bta-miR-101 Fold change,[5],−1.47
same,bta-miR-101 Log fold change,[5],−0.55
same,bta-miR-142-5p Fold change,[5],−1.43
same,bta-miR-142-5p Log fold change,[5],−0.51
same,bta-miR-148a Fold change,[5],−1.78
same,bta-miR-148a Log fold change,[5],−0.83
same,bta-miR-148b Fold change,[5],−1.43
same,bta-miR-148b Log fold change,[5],−0.51
same,bta-miR-149-5p Fold change,[5],1.43
same,bta-miR-149-5p Log fold change,[5],0.52
same,bta-miR-181b Fold change,[5],1.38
same,bta-miR-181b Log fold change,[5],0.47
same,bta-miR-184 Fold change,[5],2.61
same,bta-miR-184 Log fold change,[5],1.38
same,bta-miR-187 Fold change,[5],−2.07
same,bta-miR-187 Log fold change,[5],−1.05
same,bta-miR-193a-5p Fold change,[5],1.60
same,bta-miR-193a-5p Log fold change,[5],0.68
same,bta-miR-197 Fold change,[5],1.37
same,bta-miR-197 Log fold change,[5],0.46
same,bta-miR-199a-3p Fold change,[5],1.92
same,bta-miR-199a-3p Log fold change,[5],0.94
same,bta-miR-296-5p Fold change,[5],2.10
same,bta-miR-296-5p Log fold change,[5],1.07
same,bta-miR-320a Fold change,[5],1.68
same,bta-miR-320a Log fold change,[5],0.75
same,bta-miR-326 Fold change,[5],1.47
same,bta-miR-326 Log fold change,[5],0.55
same,bta-miR-331-3p Fold change,[5],1.61
same,bta-miR-331-3p Log fold change,[5],0.69
same,bta-miR-365-3p Fold change,[5],1.59
same,bta-miR-365-3p Log fold change,[5],0.67
same,bta-miR-374a Fold change,[5],−1.59
same,bta-miR-374a Log fold change,[5],−0.67
same,bta-miR-500 Fold change,[5],1.43
same,bta-miR-500 Log fold change,[5],0.51
same,bta-miR-652 Fold change,[5],1.46
same,bta-miR-652 Log fold change,[5],0.54
same,bta-miR-877 Fold change,[5],1.93
same,bta-miR-877 Log fold change,[5],0.95
same,bta-miR-1249 Fold change,[5],1.43
same,bta-miR-1249 Log fold change,[5],0.52
same,bta-miR-1260b Fold change,[5],1.63
same,bta-miR-1260b Log fold change,[5],0.70
same,bta-miR-1307 Fold change,[5],1.49
same,bta-miR-1307 Log fold change,[5],0.57
same,bta-miR-2285bf Fold change,[5],−1.52
same,bta-miR-2285bf Log fold change,[5],−0.61
same,bta-miR-2447 Fold change,[5],1.92
same,bta-miR-2447 Log fold change,[5],0.94
same,bta-miR-6523a Fold change,[5],1.39
same,bta-miR-6523a Log fold change,[5],0.47
same,bta-miR-6529a Fold change,[5],1.32
same,bta-miR-6529a Log fold change,[5],0.40
same,hsa-let-7d-3p Fold change,[5],1.62
same,hsa-let-7d-3p Log fold change,[5],0.70
same,hsa-miR-30e-5p Fold change,[5],−1.45
same,hsa-miR-30e-5p Log fold change,[5],−0.54
same,hsa-miR-16-1-3p Fold change,[5],−2.57
same,hsa-miR-16-1-3p Log fold change,[5],−1.36
same,hsa-miR-21-5p Fold change,[5],−1.33
same,hsa-miR-21-5p Log fold change,[5],−0.41
same,hsa-miR-29a-3p Fold change,[5],−1.32
same,hsa-miR-29a-3p Log fold change,[5],0.40
same,hsa-miR-29b-1-5p Fold change,[5],1.90
same,hsa-miR-29b-1-5p Log fold change,[5],0.92
same,hsa-miR-142-3p Fold change,[5],−1.57
same,hsa-miR-142-3p Log fold change,[5],−0.65
same,hsa-miR-142-5p Fold change,[5],−1.55
same,hsa-miR-142-5p Log fold change,[5],−0.63
same,hsa-miR-143-3p Fold change,[5],−1.96
same,hsa-miR-143-3p Log fold change,[5],−0.97
same,hsa-miR-152-3p Fold change,[5],−1.37
same,hsa-miR-152-3p Log fold change,[5],0.45
same,hsa-miR-155-5p Fold change,[5],1.31
same,hsa-miR-155-5p Log fold change,[5],0.39
same,hsa-miR-192-5p Fold change,[5],−1.47
same,hsa-miR-192-5p Log fold change,[5],−0.56
same,hsa-miR-340-5p Fold change,[5],−1.47
same,hsa-miR-340-5p Log fold change,[5],−0.56
same,hsa-miR-532-3p Fold change,[5],1.51
same,hsa-miR-532-3p Log fold change,[5],0.60
same,hsa-miR-574-3p Fold change,[5],1.36
same,hsa-miR-574-3p Log fold change,[5],0.44
same,hsa-miR-1260b Fold change,[5],2.19
same,hsa-miR-1260b Log fold change,[5],1.13
same,hsa-miR-9983-3p Fold change,[5],−1.40
same,hsa-miR-9983-3p Log fold change,[5],0.48
same,hsa-miR-10395-3p Fold change,[5],−2.92
same,hsa-miR-10395-3p Log fold change,[5],−1.55
same,hsa-miR-12135 Fold change,[5],−1.63
same,hsa-miR-12135 Log fold change,[5],−0.71
same,Number of miRNAs significantly altered,"after rest period, prior to LPS challenge",51

# From patent publication US20250295732A1, “COMPOSITIONS AND METHODS FOR ACTIVATING INNATE IMMUNITY” (Zoetis Services LLC, priority 2021, published 2025)
